pIC50: −log10 of the molar value. Values after ≈ are worked out from the molar mass of the structure shown.
How the values were obtained:
line XA17 tissue = assay: Plant regeneration from line XA17 callus in presence of herbicide; format: cell-based, maize; settings: 0.1, 0.3, and 3.0 mg per liter 214
Description: (§1) Eighty to 90 mg quantities of maize callus tissue were transferred to embryo and shoot development (regeneration) media in petri plates. The media consisted of MS basal media supplemented with 0.1 mg per liter 2,4-D and 1×10^-7 M abscissic acid. 0.25% Gelrite (Kelco Co., San Diego, Calif.) was used as a solid support in place of agar. The tissue was incubated in the dark at 26° C. (approximately 300 footcandles,soft white fluorescent) on a cycle of 14 hours light, 10 hours dark. Developing plants reaching a size of 1-3 cm were then transferred to flasks or jars, containing MS media with no supplementation, for further development. When plants reached the two to three leaf stage, they were moved to pots containing vermiculite and exposed to light at 2600 footcandles. These plants were watered with 20% v/v MS media for one week and then with water until they grew stably. The plants were then transferred to soil for growth to maturity.
Traits which are selected for and expressed in undifferentiated cell cultures are not necessarily expressed in the differentiated organs and tissues of a developing plant. Therefore, it was necessary to examine plants regenerated from line XA17 callus tissue in the presence of normally inhibitory concentrations of 214. Line XA17 tissue was transferred to regeneration media containing 0.1, 0.3, and 3.0 mg per liter 214.

cell line XA119 = assay: Tolerance of cell line XA119 at the cellular level; format: cell-based, maize
[1] = tested on: XA17 seedlings homozygous for the herbicide resistance trait; assay: Seedling assay, XA17 seedlings homozygous for the resistance trait; format: in vivo, maize
Description: (§2) Twenty control seeds and ten XA17 seeds were surface sterilized with 2.6% sodium hypochlorite for twenty minutes and then washed with sterile distilled water. The seed was imbibed overnight in sterile water containing a small quantity of the fungicide, captan (N-trichloromethylthio-4-cyclohexene-1,2-dicarboximide). The mature embryos were then excised from the seed and plated scutellum side down on solid MS media without 2,4-D. Ten control seeds were plated on media containing no 214 and ten were plated in the presence of 6×10^-8M 214 which had been incorporated into the medium after autoclaving but before gelling. All ten XA17 seeds were plated in the presence of 6×10^-8 M 214. Seedlings were evaluated seven days after plating.
(§3) XA17 seeds homozygous for the resistance trait were obtained as described in Section 6.4.6. […] Assays were conducted as described in Section 6.4.5.

XA17 seedlings = assay: Seedling assay, progeny of XA17 regenerated plant x B73 (heterozygous); format: in vivo, maize
Source text: An XA17 regenerated plant with a normal ear was pollinated with pollen obtained from a herbicide sensitive inbred B73 plant grown from seed. Seeds were obtained and harvested approximately forty days post pollination.
as §2

control seedlings = assay: Seedling assay, control (herbicide sensitive) seedlings; format: in vivo, maize
Source text: Seeds to be used as controls in the heritability assay were obtained from regenerated plants from an herbicide sensitive cell line of the same genetic background as line XA17. These regenerated plants were crossed with pollen obtained from a herbicide sensitive inbred B73 plant grown from seed. Seeds were harvested approximately forty days after pollination.
as §2, §3

[2] = tested on: Unselected culture tissue; assay: Herbicide inhibition of plant regeneration, unselected culture tissue; format: cell-based, maize
Description: as §1
The effect of various concentrations of 214 on plant regeneration embryo and shoot development were evaluated. Unselected culture tissue was transferred to regeneration media containing various concentrations of 214 ranging from 0.01 to 0.3 mg per liter. The tissue was then put through the first three weeks of the plant regeneration protocol described supra. The culture was scored after this time for the production of well defined shoots.

[3] = tested on: AHAS activity from line UV18; assay: AHAS activity assay, line UV18; format: biochemical, maize; settings: 3×10^-6 to 3×10^-4 M 997
Description: (§4) Assays were conducted as a modification of the procedure of Smith et al. (1979, Molec. Gen. Genet. 169: 299-314). Plant cell culture material was ground with sand in a cold mortar and pestle in an equal quantity (w/v) of cell disruption media containing 0.05 M potassium phosphate (pH 7.0), 0.1 mM MgSO4, and 0.5 mM dithiothreitol. The preparation was centrifuged at 11,000×g for 20 minutes and the supernatant assayed for AHAS activity. Assays were conducted in 1 ml volumes containing 0.05 M potassium phosphate (pH 8.0), 40 mM pyruvate, 5 mM MgCl2, 0.1 mM thiamine pyrophosphate, 0.2 ml cell extract, and various concentrations of the herbicide of interest. The reaction mixtures were incubated at 30° C. for 75 minutes and the reaction terminated with the addition of 0.1 ml of 50% (v/v) H2 SO4. Following further incubation at 40° C. for 20 minutes, the acetoin formed from acetolactate by acidification was quantitated using the method of Westerfield (1945, J. Biol. Chem. 161: 495). To 0.2 ml of reaction mixture, 0.8 ml of water, 0.5 ml of 0.5% (w/v) creatine, and 0.5 ml of 5% (w/v) naphthol in 10% (w/v) NaOH was added. After mixing, solutions were incubated at room temperature for one hour. The development of pink color was quantitated by measuring light absorbance at 530 nm. […]

[4] = tested on: AHAS activity from line QJ22; assay: AHAS activity assay, line QJ22; format: biochemical, maize; settings: 3×10^-6 to 3×10^-4 M 997
Description: as §4

maize seedlings = assay: Germination and seedling growth from excised mature maize embryos; format: in vivo; settings: concentration in the media, shoot growth after seven days
Description: The herbicidal effects of 997 on maize seedlings were determined by evaluating germination and seedling growth from excised, mature maize embryos (Green, 1974, Crop Sci. 14: 54-58). Seeds were sterilized for 10 minutes in 0.5% hypochlorite and then imbibed for 24 hours in sterile, distilled water. Mature embryos were aseptically excised and plated on solid MS media […] containing various concentrations of 997 and no 2,4-D. Embryos were placed with their shoot axis away from the media. Shoot growth was quantitated after seven days.

[5] = 6×10^-8 M 214, seven days after plating
[6] = control seedlings, 6×10^-8 M 214, seven days after plating

Compound	plantlet development on regeneration media (line XA17 tissue)	enhancement of tolerance at the cellular level (cell line XA119)	shoot growth inhibition at the highest concentration tested ([1]; 3×10^-6 M, seedlings homozygous for the resistance trait)	resistance of XA17 homozygous seedlings ([1]; vs control seedlings)	root length of resistant seedlings (XA17 seedlings; [5])	root length of sensitive seedlings (XA17 seedlings; [5])	level of tolerance on an herbicide concentration basis (XA17 seedlings; seedlings heterozygous for the tolerance trait)	pIC50 (control seedlings; Zea mays, read-out: concentration inhibiting shoot growth 50%)	average root length (control seedlings; [6])	average shoot length (control seedlings; [6])	somatic embryo development and shoot formation ([2]; 0.3 mg per liter 214)	IC50 ([2]; Zea mays, 504 h, based on the number of shoots formed, first three weeks of regeneration protocol, read-out: concentration inhibiting plant regeneration 50%)	tolerance of AHAS activity vs AHAS from control cultures [3]	tolerance of AHAS activity vs AHAS from control cultures [4]	herbicide concentration giving 50% growth inhibition (maize seedlings)
CC(C)C1(C)NC(c2nc3ccccc3cc2C(=O)O)=NC1=O (stereo not drawn) [compound 214, 2-(5-isopropyl-5-methyl-4-oxo-2-imidazolin-2-yl)3-quinolinecarboxylic acid]	Normally developing plantlets were obtained at all three herbicide levels	approximately three fold	no inhibition	at least 100 fold	6-7 cm	0-1 cm	at least 5 fold	7.52	1.1 cm	1.5 cm	completely inhibited	0.03 to 0.1 µg/mL (≈ 0.0964 to 0.321 µM)	–	–	–
CC(C)C1(C)NC(c2ncccc2C(=O)O)=NC1=O (stereo not drawn) [compound 997, 2-(5-isopropyl-5-methyl-4-oxo-2-imidazolin-2-yl)nicotinic acid]	–	–	–	–	–	–	–	–	–	–	–	–	more tolerant	more tolerant	1 to 3×10^-8 M

— patent US6211439A, “Herbicide resistance in plants” (MGI Pharma, Inc, priority 1995, dated 2001)
